Source: patent US10196401B2, “Spiro-lactam NMDA receptor modulators and uses thereof” (Aptinyx Inc., priority 2016, dated 2019)

Columns and labels:
rats = assay: Positive emotional learning (PEL) test, rat 50-kHz ultrasonic vocalizations (USVs); format: in vivo
Experimental: Experiments were conducted as described in Burgdorf et al., “The effect of selective breeding for differential rates of 50-kHz ultrasonic vocalizations on emotional behavior in rats,” Devel. Psychobiol., 51:34-46 (2009). Rat 50-kHz ultrasonic vocalization (hedonic USVs) is a validated model for the study of positive affective state and is best elicited by rough-and-tumble play.
The PEL assay measures the acquisition of positive (hedonic) 50-kHz ultrasonic vocalizations (USVs) to a social stimulus, heterospecific rough and tumble play stimulation. Heterospecific rough-and-tumble play stimulation was administered by the experimenter's right hand. […] High frequency ultrasonic vocalizations (USVs) were recorded and analyzed by sonogram with Avasoft SASlab Pro (Germany) as previously described by Burgdorf et al., “Positive emotional learning is regulated in the medial prefrontal cortex by GluN2B-containing NMDA receptors,” Neuroscience, 192:515-523 (2011). Frequency modulated 50-kHz USVs that occurred during each of the no-stimulation periods were quantified to measure PEL. […] Positive emotional learning was measured during the conditioned stimulus (CS) trials preceding the tickle unconditioned stimulus (UCS) trials. […] Running speed for animals to self administer tickling at the end of the 3 min session was also measured. […]

SD rats = assay: Novelty-induced hypophagia (NIH) test; format: in vivo, rat; details: 1 h before a single 10-min test session
Text: This Example relates to the assessment of the anxiolytic effect of treatment in the stress-induced anxiety model, novelty induced hypophagia. This assay is also sensitive to the rapid acting antidepressants ketamine and GLYX-13 (Li et al., “mTOR-dependent synapse formation underlies the rapid antidepressant effects of NMDA antagonists,” Science 329:959-964, 2010; and Burgdorf et al., 2013). See also Bodnoff et al., “A comparison of the effects of diazepam versus several typical and atypical anti-depressant drugs in an animal model of anxiety,” Psychopharmacology, 97:277-279, 1989.
Testing was conducted as described by (Burgdorf et al., 2013). […] Animals were food deprived overnight before testing, and lab chow was placed in the center chamber of an open field (40×40×20 cm) for 10 min under dim red lighting. Between testing each animal, feces and urine were removed from the apparatus. After NIHI testing, the latency to eat in the animal's home cage was determined as a control to ensure the effect on eating is specific to the novel environment. Animals were videotaped, and latency (sec) for the animal to take the first bite of food was manually scored offline.
A single point per dose group that was 2 or more standard deviations from the mean was considered an outlier and was excluded from the data analysis. […]

NMDAR2D = NMDAR2D (Homo sapiens, UniProt O15399+Q05586); assay: Potentiation of [3H]MK-801 binding, NMDAR2D; set-up: species or system rat; details: NMDAR2D binding profile, wild-type
Sequence of NMDAR2D (O15399 28-1336, species assumed, other chains not shown): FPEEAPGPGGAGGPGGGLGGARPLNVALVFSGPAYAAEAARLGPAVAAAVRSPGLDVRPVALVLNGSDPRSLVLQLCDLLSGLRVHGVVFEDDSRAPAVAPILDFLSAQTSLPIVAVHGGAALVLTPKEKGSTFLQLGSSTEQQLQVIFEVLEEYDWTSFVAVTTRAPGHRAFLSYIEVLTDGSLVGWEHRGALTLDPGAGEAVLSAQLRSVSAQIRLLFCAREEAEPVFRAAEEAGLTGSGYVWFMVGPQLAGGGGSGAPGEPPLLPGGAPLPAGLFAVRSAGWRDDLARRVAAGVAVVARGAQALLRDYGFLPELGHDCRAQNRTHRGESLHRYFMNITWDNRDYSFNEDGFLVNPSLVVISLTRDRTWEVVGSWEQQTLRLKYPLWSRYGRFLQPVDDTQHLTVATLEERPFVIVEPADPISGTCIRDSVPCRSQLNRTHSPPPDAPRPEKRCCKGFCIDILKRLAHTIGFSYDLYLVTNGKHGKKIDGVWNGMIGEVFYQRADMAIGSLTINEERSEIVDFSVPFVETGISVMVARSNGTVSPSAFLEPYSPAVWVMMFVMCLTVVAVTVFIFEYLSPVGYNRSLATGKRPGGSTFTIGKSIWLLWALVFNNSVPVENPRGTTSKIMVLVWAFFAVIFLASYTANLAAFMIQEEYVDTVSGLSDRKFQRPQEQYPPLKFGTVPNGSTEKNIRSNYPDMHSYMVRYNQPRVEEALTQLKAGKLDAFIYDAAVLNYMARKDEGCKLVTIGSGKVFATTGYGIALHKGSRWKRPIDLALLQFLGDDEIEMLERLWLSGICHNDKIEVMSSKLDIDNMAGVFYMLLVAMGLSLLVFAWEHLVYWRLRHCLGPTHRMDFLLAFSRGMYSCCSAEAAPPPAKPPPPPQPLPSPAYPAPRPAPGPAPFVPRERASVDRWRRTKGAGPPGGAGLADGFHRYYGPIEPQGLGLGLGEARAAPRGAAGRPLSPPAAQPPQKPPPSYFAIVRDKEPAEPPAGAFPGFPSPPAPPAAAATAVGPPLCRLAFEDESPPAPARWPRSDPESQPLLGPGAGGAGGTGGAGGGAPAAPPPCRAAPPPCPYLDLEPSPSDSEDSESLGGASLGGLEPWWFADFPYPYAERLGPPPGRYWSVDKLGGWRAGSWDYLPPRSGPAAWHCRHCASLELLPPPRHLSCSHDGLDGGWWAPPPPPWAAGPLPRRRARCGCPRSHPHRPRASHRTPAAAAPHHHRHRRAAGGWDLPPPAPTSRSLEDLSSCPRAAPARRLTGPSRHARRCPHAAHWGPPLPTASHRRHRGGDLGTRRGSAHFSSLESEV
Experimental: Assays were conducted as described by Moskal et al., “GLYX-13: a monoclonal antibody-derived peptide that acts as an N-rnethyl-D-aspartate receptor modulator,” Neuropharmacology, 49, 1077-87, 2005. The potentiation of [^3H]MK-801 binding (5 nrM; 22.5 Ci/mmol) to well washed rat cortical membranes (200 μg) was measured under non-equilibrium conditions (15 min @ 25° C.) in the presence of increasing concentrations of Compound A.
Assays were conducted as described above in Example 5, by Moskal et al. (2005).

Structure (SMILES)	positive emotional learning as measured by rat USVs (rats; administered one hour prior to PEL testing)	latency to eat in the NIH test (anxiolytic effect) (SD rats; 10-1000 μg/kg PO)	positive emotional learning in the rat USVs test (rats; rat, in vivo)	EC50 (NMDAR2D)	latency to eat in the NIH test (anxiolytic effect) (SD rats; 0.0001-1 μg/kg PO)
CC(C)CN1CCC[C@]12CN([C@H](C(N)=O)[C@@H](C)O)C2=O [Compound A, (2S,3R)-3-hydroxy-2-((R)-5-isobutyl-1-oxo-2,5-diazaspiro[3.4]octan-2-yl)butanamide]	increases positive emotional learning	produces an anxiolytic effect			
CC(C)CN1CCC[C@@]12CN([C@H](C(N)=O)[C@@H](C)O)C2=O [Compound B, (2S,3R)-3-hydroxy-2-((S)-5-isobutyl-1-oxo-2,5-diazaspiro[3.4]octan-2-yl)butanamide]			increases positive emotional learning	3.98 nM	produces an anxiolytic effect
